Data from paper PMC8765437, “GSK3640254 Is a Novel HIV-1 Maturation Inhibitor with an Optimized Virology Profile” (Antimicrobial Agents and Chemotherapy, 2022).
Where two headings read alike, the source gives them in different places.

Tested on: NLRepRlucP373S viruses containing Gag SDMs or gag/pr genes from clinical isolates
Test: Multiple-cycle replication assay, NLRepRluc reporter viruses in MT-2 cells, luciferase endpoint
Assay type: cell-based, HIV-1
Excerpt: Multiple-cycle assays using recombinant viruses or clinical isolates were used to assess MI antiviral activity as described previously ([10]). pNLRepRlucP373S (the P373S change is in the Gag gene and converts an outlier polymorphism in the NL4-3 gene to the prevalent amino acid in the population) plasmids containing SDMs in Gag or gag/pr regions from clinical isolates were transfected into HEK 293T cells, and the supernatant containing recombinant virus was harvested after 4 to 5 days. Virus was used to infect MT-2 cells in the presence of a 3-fold serially diluted compound at a final dimethyl sulfoxide (DMSO) concentration of 1%. The inocula of the reporter viruses were determined based on the luciferase activity detected on day 4 postinfection. The MOI (ratio of infectious virions to target cells) of reporter-free laboratory strains and clinical isolates was 0.005, as derived from a tissue culture infectious dose study. Clinical isolates or reporter-free viruses were examined in the reporter CEM-NKR-CCR5-Luc cells or PBMCs at MOIs ranging from 0.005 to 0.01. Each infection started with a drug-free preincubation of the cell-virus mixtures, performed at 37°C and 5% CO2 for either 1 h at 2 times the final cell density (reporter viruses) or 1 h (reporter-free laboratory strains) or 3 h (clinical isolates) using cell pellets in 0.5 mL of medium. After preincubation, cell-virus mixtures were added to compound-containing 96-well plates for a final cell density of either 10,000 (MT-2 cells for reporter viruses), 20,000 (MT-2 and PM1 cells for reporter-free laboratory strains), 200,000 (PBMCs for clinical isolates), or 500,000 (CEM-NKR-CCR5-Luc for reporter-free laboratory strains) cells per well. The CEM-NKR-CCR5-Luc cell assay was performed in the presence of Polybrene (10 μg/mL). Virus growth was determined on days 4 to 5 postinfection for reporter variants or days 5 to 11 for the other viruses. The reporter viruses were detected by a luciferase assay according to manufacturer protocols (Brite-Glo luciferase kit [Promega] for CEM-NKR-CCR5-Luc cells and Dual-Luciferase Reporter 1000 assay system [Promega] for the other cells), and luminescence was detected on a Wallac Trilux. The growth of clinical isolates in PBMCs was quantitated by reverse transcriptase activity in a 96-well scintillation proximity assay (SPA). Twenty microliters of culture supernatants was mixed with 40 μL of reaction cocktail (62.5 mM Tris-HCl [pH 7.8], 100 mM KCl, 0.0625% NP-40, 2.5 mM dithiothreitol [DTT], 6.25 mM MgCl2, 1 mM EGTA, 6.25 μg/mL of poly rA, 2.5 μg/mL of streptavidin SPA beads prebound with biotinylated-dT12-18, and 1 μCi of [^3H]TTP). Mixtures were incubated at 37°C for ∼3 h and quenched with 100 μl of 0.25 M EDTA per well. Luminescence was detected on a Wallac Trilux programmed for tritium counting with SPA beads in opaque plates. The growth of the reporter-free laboratory M-tropic strains and clinical isolates was monitored by a p24 enzyme-linked immunosorbent assay (ELISA; PerkinElmer Life Sciences, Waltham, MA) performed on culture supernatants. […] A 1:1,000 dilution of cell supernatant in PBS was generally observed to fall in the dynamic range of the endpoint signal.
Maximal percent inhibition values were calculated as MPI = 100 – (mean signals at the 2 highest concentrations of compound/mean signal of 2 no-drug control wells) × 100.

## C=C(C)[C@@H]1CC[C@]2(NCCN3CCS(=O)(=O)CC3)CC[C@]3(C)[C@H](CC[C@@H]4[C@@]5(C)CC=C(c6ccc(C(=O)O)cc6)C(C)(C)[C@@H]5CC[C@]43C)[C@@H]12 [GSK’795, reference compound]
A366V-containing viruses
  MPI: −13 to 408%
Human immunodeficiency virus 1, MT2, Table S1, SDM A326T/V362I/V370A
  EC50: ≥ 3000 nM
Human immunodeficiency virus 1, MT2, Table S1, SDM S368R/V370A
  EC50: 2 nM
Human immunodeficiency virus 1, MT2, Table S1, SDM T332S/V362I/PrR41G
  EC50: 700 nM
Human immunodeficiency virus 1, MT2, Table S1, SDM V362I/V370A
  EC50: ≥ 3000 nM
Human immunodeficiency virus 1, MT2, Table S1, SDM V370A
  EC50: 6 nM
Human immunodeficiency virus 1, MT2, Table S1, SDM V370A/ΔT371
  EC50: 7 nM
Human immunodeficiency virus 1, MT2, Table S1, SDM ΔV370
  EC50: 6 nM
Human immunodeficiency virus 1, MT2, Table S1, subtype B SDM Wild-type (V, QVT)
  EC50: 5 nM
Human immunodeficiency virus 1, MT2, read-out: EC50 (range), Subtype C gag/pr viruses, n=11
  EC50: 3 to 22 nM
Human immunodeficiency virus 1, MT2, read-out: EC50 (range), V362I only viruses, n=9
  EC50: 3 to 54 nM
Human immunodeficiency virus 1, MT2, read-out: EC50 (range), Wild-type subtype B, n=5
  EC50: 1 to 6 nM
Human immunodeficiency virus 1, MT2, read-out: Mean ± SD EC50, A366V-containing viruses (A366V, V362I/A366V, V362I/A366V/V370M, A366V/V370M)
  EC50: > 3000 nM
Human immunodeficiency virus 1, MT2, read-out: Mean ± SD EC50, SDM A326T/V362I/V370A
  EC50: > 3000 nM
Human immunodeficiency virus 1, MT2, read-out: Mean ± SD EC50, SDM A364V
  EC50: > 3000 nM
Human immunodeficiency virus 1, MT2, read-out: Mean ± SD EC50, SDM R361K/V362I/L363M
  EC50: 552 ± 971 nM
Human immunodeficiency virus 1, MT2, read-out: Mean ± SD EC50, SDM T332S/V362I/prR41G
  EC50: 704 ± 606 nM
Human immunodeficiency virus 1, MT2, read-out: Mean ± SD EC50, SDM V362I/V370A
  EC50: > 3000 nM
Human immunodeficiency virus 1, MT2, read-out: Mean ± SD EC50, SDM V370A
  EC50: 6 nM
Human immunodeficiency virus 1, MT2, read-out: Mean ± SD EC50, SDM Wild type
  EC50: 5 ± 3 nM
Human immunodeficiency virus 1, MT2, read-out: Mean ± SD EC50, SDM ΔV370
  EC50: 6 ± 2 nM
Human immunodeficiency virus 1, MT2, read-out: Mean ± SD EC50, Subtype B gag/pr viruses, n=24
  EC50: 66 nM
Human immunodeficiency virus 1, MT2, read-out: Mean ± SD EC50, Subtype C gag/pr viruses, n=11
  EC50: 9.1 ± 5.6 nM
Human immunodeficiency virus 1, MT2, read-out: Mean ± SD EC50, V362I only viruses, n=9
  EC50: 11.1 ± 16.3 nM
Human immunodeficiency virus 1, MT2, read-out: Mean ± SD EC50, V362I/ΔV370 virus, n=1
  EC50: 1400 nM
Human immunodeficiency virus 1, MT2, read-out: Mean ± SD EC50, Wild-type subtype B (V362, Q369, V370, T371), n=5
  EC50: 2.8 ± 2.5 nM
Human immunodeficiency virus 1, MT2, read-out: Median EC50, Subtype B gag/pr viruses, n=24
  EC50: 5 nM
Human immunodeficiency virus 1, MT2, read-out: Median EC50, Subtype C gag/pr viruses, n=11
  EC50: 7 nM
Human immunodeficiency virus 1, MT2, read-out: Median EC50, V362I only viruses, n=9
  EC50: 5 nM
Human immunodeficiency virus 1, MT2, read-out: Median EC50, Wild-type subtype B, n=5
  EC50: 1 nM
Human immunodeficiency virus 1, MT2, read-out: PBA EC90, Table S1, SDM R361K/V362I/L363M
  EC90: 321000 nM
Human immunodeficiency virus 1, MT2, read-out: PBA EC90, Table S1, SDM S368R/V370A
  EC90: 40 nM
Human immunodeficiency virus 1, MT2, read-out: PBA EC90, Table S1, SDM T332S/V362I/PrR41G
  EC90: 422000 nM
Human immunodeficiency virus 1, MT2, read-out: PBA EC90, Table S1, SDM V370A
  EC90: 50 nM
Human immunodeficiency virus 1, MT2, read-out: PBA EC90, Table S1, SDM V370A/ΔT371
  EC90: 230 nM
Human immunodeficiency virus 1, MT2, read-out: PBA EC90, Table S1, SDM ΔV370
  EC90: 1030 nM
Human immunodeficiency virus 1, MT2, read-out: PBA EC90, Table S1, subtype B SDM Wild-type (V, QVT)
  EC90: 110 nM
Human immunodeficiency virus 1, MT2, read-out: PBA EC90, subtype B gag/pr 4NRR (Wild-type)
  EC90: 70 nM
Human immunodeficiency virus 1, MT2, read-out: PBA EC90, subtype B gag/pr 28-MDR (Wild-type)
  EC90: 100 nM
Human immunodeficiency virus 1, MT2, read-out: PBA EC90, subtype B gag/pr 92BR014 (V370M)
  EC90: 370 nM
Human immunodeficiency virus 1, MT2, read-out: PBA EC90, subtype B gag/pr 92BR018 (V, QAΔ)
  EC90: 970 nM
Human immunodeficiency virus 1, MT2, read-out: PBA EC90, subtype B gag/pr 92TH014 (V362I)
  EC90: 670 nM
Human immunodeficiency virus 1, MT2, read-out: PBA EC90, subtype B gag/pr 92TH026 (V362I)
  EC90: 210 nM
Human immunodeficiency virus 1, MT2, read-out: PBA EC90, subtype B gag/pr 92US072 (V362I)
  EC90: 130 nM
Human immunodeficiency virus 1, MT2, read-out: PBA EC90, subtype B gag/pr 92US729 (Wild-type)
  EC90: 70 nM
Human immunodeficiency virus 1, MT2, read-out: PBA EC90, subtype B gag/pr 93BR008 (V362I)
  EC90: 120 nM
Human immunodeficiency virus 1, MT2, read-out: PBA EC90, subtype B gag/pr 93BR009 (V370M)
  EC90: 130 nM
Human immunodeficiency virus 1, MT2, read-out: PBA EC90, subtype B gag/pr 93BR017 (V, QAΔ)
  EC90: 600 nM
Human immunodeficiency virus 1, MT2, read-out: PBA EC90, subtype B gag/pr 93BR022 (V, QAΔ)
  EC90: 630 nM
Human immunodeficiency virus 1, MT2, read-out: PBA EC90, subtype B gag/pr 93TH0647 (V362I)
  EC90: 60 nM
Human immunodeficiency virus 1, MT2, read-out: PBA EC90, subtype B gag/pr 93US141 (V362I)
  EC90: 250 nM
Human immunodeficiency virus 1, MT2, read-out: PBA EC90, subtype B gag/pr 411-1-C (Wild-type)
  EC90: 40 nM
Human immunodeficiency virus 1, MT2, read-out: PBA EC90, subtype B gag/pr 220162 (Wild-type)
  EC90: 600 nM
Human immunodeficiency virus 1, MT2, read-out: PBA EC90, subtype B gag/pr 400024 (V370M)
  EC90: 79000 nM
Human immunodeficiency virus 1, MT2, read-out: PBA EC90, subtype B gag/pr 400051 (V370A)
  EC90: 30 nM
Human immunodeficiency virus 1, MT2, read-out: PBA EC90, subtype B gag/pr 1000038 (V362I/V370A)
  EC90: 977000 nM
